Source: the NIST ThermoML archive (doi:10.1016/j.fluid.2013.12.020)
± gives the expanded uncertainty stated by the source.

Settings: 101.33 kPa, Liquid; for viscosity: Falling or rolling sphere viscometry; for mass density: Vibrating tube method

With `CCCCn1cc[n+](C)c1.N#CN=C=[N-]` [1-butyl-3-methylimidazolium dicyanamide] the viscosity (293.15 K) was 48.53 ± 2.1 mPa·s, the mass density (293.15 K) was 1065.4 ± 2.2 kg/m3 and the viscosity (303.15 K) was 31.73 ± 1.4 mPa·s. For the same compound, the mass density (303.15 K) was 1059.09 ± 2.1 kg/m3, the viscosity (313.15 K) was 22.09 ± 0.96 mPa·s and the mass density (313.15 K) was 1052.83 ± 2.1 kg/m3. It also gave a viscosity (323.15 K) of 16.17 ± 0.7 mPa·s, a mass density (323.15 K) of 1046.62 ± 2.1 kg/m3 and a viscosity (333.15 K) of 12.35 ± 0.54 mPa·s. It also gave a mass density (333.15 K) of 1040.48 ± 2 kg/m3.
`NCCO` [2-aminoethan-1-ol] gave a viscosity (293.15 K) of 23.76 ± 0.98 mPa·s, a mass density (293.15 K) of 1015.96 ± 0.3 kg/m3 and a viscosity (303.15 K) of 14.85 ± 0.61 mPa·s. For the same compound, the mass density (303.15 K) was 1008.05 ± 0.29 kg/m3, the viscosity (313.15 K) was 9.943 ± 0.41 mPa·s and the mass density (313.15 K) was 1000.09 ± 0.29 kg/m3. It also gave a viscosity (323.15 K) of 6.984 ± 0.29 mPa·s, a mass density (323.15 K) of 992.07 ± 0.29 kg/m3 and a viscosity (333.15 K) of 5.108 ± 0.21 mPa·s. For the same compound, the mass density (333.15 K) was 983.98 ± 0.29 kg/m3.
Work on `Cn1cc[n+](CCO)c1.N#C[N-]C#N` [3-(2-hydroxyethyl)-1-methyl-1H-imidazol-3-ium dicyanoazanide] yielded a viscosity (293.15 K) of 121.5 ± 6.2 mPa·s, a mass density (293.15 K) of 1192.85 ± 2.7 kg/m3 and a viscosity (303.15 K) of 68.67 ± 3 mPa·s. For the same compound, the mass density (303.15 K) was 1186.37 ± 2.7 kg/m3, the viscosity (313.15 K) was 42.93 ± 1.9 mPa·s and the mass density (313.15 K) was 1179.92 ± 2.7 kg/m3. It also gave a viscosity (323.15 K) of 28.96 ± 1.3 mPa·s, a mass density (323.15 K) of 1173.52 ± 2.6 kg/m3 and a viscosity (333.15 K) of 20.67 ± 0.9 mPa·s. The mass density (333.15 K) was 1167.18 ± 2.6 kg/m3.
